These results are taken from PubChem BioAssay (NCI).

The structures appear in SMILES notation. Several values for one entry are separate records, joined by “and”; a condition that tells them apart may be missing. Equal entries are not always repeated.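 A five-concentration, 48-hour dose response in 96-well plates underlies each endpoint, interpolated linearly between surrounding concentrations. The concentration for 50% growth inhibition is given as GI50. Definition used: TGI = concentration required for complete inhibition of growth.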 Where a SMILES comes first, the peptide text is derived from it. [ ]: non-standard residue; d: D form. The star is where a group is joined. ξ: configuration not given here. X16 = COC1=CC(=O)N(C(=O)C(O*)C(C)C)C1Cc1ccccc1; ξNMe2Val = CC(C)C(C(=O)*)N(C)C; NMeV = CN[CH](C(=O)O)C(C)C

Among the test systems are 786-0 renal; HL-60(TB) leukemia; U251 CNS; OVCAR-3 ovarian; COLO 205 colon; K-562 leukemia; MCF7 breast; NCI-H23 lung; SF-539 CNS; NCI-H226 lung.
Test in all cases: NCI anticancer screen, dose series, 48 h

For `Fc1cccc(F)c1C1SCC2=Nc3ccccc3CN21` (centres undefined), the TGI is > 100 µM with 786-0 renal; > 100 µM in the assay with HL-60(TB) leukemia; > 100 µM in the assay on U251 CNS; 47.5 µM with OVCAR-3 ovarian; > 100 µM in the assay on COLO 205 colon; > 100 µM in the assay on K-562 leukemia. Besides, the figures for the TGI in the assay on MCF7 breast, in the assay with NCI-H23 lung and in the assay on SF-539 CNS were > 100 µM, > 100 µM and 92.7 µM, respectively.

Consider `CC(C)(C)C1CCC2c3c([nH]c4ccccc34)C3C(=O)N(c4cc(Br)cc(Br)c4)C(=O)C3C2C1` (centres undefined), for which the TGI in the assay with 786-0 renal is 18.6 µM; in the assay with HL-60(TB) leukemia, 5.82 µM; in the assay with U251 CNS it was 30.3 µM; with COLO 205 colon it was > 100 µM; in the assay on MCF7 breast, 17.5 µM; with NCI-H23 lung, 63.3 µM. The TGI with SF-539 CNS was determined as 34 µM; in the assay with NCI-H226 lung, 75.6 µM.

For the compound `CCOC(=O)C1NCCc2c1[nH]c1ccccc21` (centres undefined), the TGI in the assay on 786-0 renal, in the assay on HL-60(TB) leukemia, in the assay with OVCAR-3 ovarian, in the assay on COLO 205 colon, in the assay with K-562 leukemia and in the assay with MCF7 breast was > 10 µM in each case. Besides, the TGI in the assay with NCI-H23 lung was > 10 µM.

Regarding `COc1ccc(C[C@@H]2CN(C(=O)c3ccccc3)[C@H](Cc3ccc(O)cc3)CN2C(=O)c2ccccc2)cc1Br`, the TGI in the assay with 786-0 renal, in the assay on HL-60(TB) leukemia, in the assay on OVCAR-3 ovarian, in the assay on COLO 205 colon, in the assay on K-562 leukemia and in the assay with MCF7 breast was > 100 µM throughout. The TGI in the assay on NCI-H23 lung, with SF-539 CNS and in the assay on NCI-H226 lung was > 100 µM throughout.

On to `COc1ccc(-c2nc3ncccn3c2-c2ccc(S(C)=O)cc2)cc1` (centres undefined), for which the TGI with 786-0 renal, in the assay with HL-60(TB) leukemia, in the assay with U251 CNS, in the assay on OVCAR-3 ovarian, with COLO 205 colon and with K-562 leukemia was > 100 µM in each case. The TGI with MCF7 breast, with NCI-H23 lung and in the assay on SF-539 CNS was > 100 µM each time.

As to `C[N+]1(C)C2Cc3ccccc3C1Cc1ccccc12`, the TGI with 786-0 renal, in the assay with HL-60(TB) leukemia, with U251 CNS, in the assay with OVCAR-3 ovarian, with COLO 205 colon and in the assay with MCF7 breast was > 100 µM each time. Besides, the TGI in the assay on NCI-H23 lung, in the assay with SF-539 CNS and in the assay on NCI-H226 lung was > 100 µM in each case.

`CCOC(=O)c1ccc(NC2Oc3cc4c(cc3C(c3cc(OC)c(OC)c(OC)c3)C2C)OCO4)cc1` (centres undefined): the TGI in the assay on 786-0 renal is 46.6 µM; in the assay with HL-60(TB) leukemia it was 0.564 µM; with U251 CNS it was > 42.5 µM; with COLO 205 colon, 0.645 µM; with MCF7 breast it was > 48.5 µM; in the assay on NCI-H23 lung it was > 67.3 µM. For the same compound, the TGI in the assay with SF-539 CNS is 0.878 µM; with NCI-H226 lung, 16 µM.

Take `C=C/C(C)=C/[C@H](C)C(=O)C[C@H](O)CC1CC(=O)NC(=O)C1`: the TGI in the assay on HL-60(TB) leukemia, in the assay with U251 CNS, in the assay with OVCAR-3 ovarian, in the assay with COLO 205 colon, in the assay with K-562 leukemia and with MCF7 breast was > 100 µM throughout. Further, the TGI in the assay with NCI-H23 lung, with SF-539 CNS and in the assay with NCI-H226 lung was > 100 µM throughout.

For `O=C(C=P(c1ccccc1)(c1ccccc1)c1ccccc1)C12CC3CC(CC(C3)C1)C2`, the TGI with 786-0 renal is 33.4 µM; with HL-60(TB) leukemia, 27.1 µM; in the assay on U251 CNS, 34 µM; with OVCAR-3 ovarian, 28.5 µM; in the assay with COLO 205 colon, 28.7 µM; in the assay with K-562 leukemia, 25.2 µM. The TGI came to 35.8 µM in the assay with MCF7 breast, 33.2 µM in the assay with NCI-H23 lung and 37 µM with SF-539 CNS.

On to `Nc1c(Br)cc(-c2cc(Br)c(N)c(Br)c2)cc1Br`, for which the TGI in the assay with 786-0 renal, with HL-60(TB) leukemia, in the assay on OVCAR-3 ovarian, in the assay on COLO 205 colon, in the assay with K-562 leukemia and in the assay on MCF7 breast was > 100 µM each time. In addition, the TGI in the assay with NCI-H23 lung, with SF-539 CNS and in the assay with NCI-H226 lung was > 100 µM throughout.

Consider `COC(=O)C(=O)C(C(=O)C(=O)Nc1ccccc1C(=O)OC)c1nc2ccc(C(=O)c3ccccc3)cc2[nH]c1=O` (centres undefined), for which the TGI in the assay with 786-0 renal, in the assay on HL-60(TB) leukemia, with U251 CNS, in the assay with OVCAR-3 ovarian, in the assay on K-562 leukemia and in the assay with MCF7 breast was > 100 µM in each case. Further, the TGI in the assay with NCI-H23 lung, in the assay on SF-539 CNS and in the assay on NCI-H226 lung was > 100 µM each time.

For `O=C(NCc1cn(Cc2cccc(Oc3ccccc3)c2)nn1)c1cccnc1Nc1ccccc1`, the GI50 was 3.74 µM in the assay with HL-60(TB) leukemia; 3.61 µM with U251 CNS; 2.28 µM in the assay with OVCAR-3 ovarian; 2.79 µM in the assay with COLO 205 colon; 3.69 µM in the assay with K-562 leukemia; 3.67 µM in the assay on MCF7 breast. The values for the GI50 with NCI-H23 lung, in the assay with SF-539 CNS and with NCI-H226 lung were 3.73 µM, 3.1 µM and 3.24 µM, respectively. Further, the TGI in the assay with HL-60(TB) leukemia was 19.5 µM; in the assay on U251 CNS it was 18.9 µM; in the assay with OVCAR-3 ovarian, 5.46 µM; with COLO 205 colon it was 5.75 µM; in the assay on K-562 leukemia, > 100 µM; in the assay with MCF7 breast, > 100 µM. Moreover, the TGI in the assay on NCI-H23 lung was > 100 µM; in the assay with SF-539 CNS, 8.6 µM; in the assay with NCI-H226 lung, > 100 µM.

For `COC1=CC(=O)N(C(=O)C(OC(=O)C2CCCN2C(=O)C2CCCN2C(=O)C(C(C)C)N(C)C(=O)C(NC(=O)C(C(C)C)N(C)C)C(C)C)C(C)C)C1Cc1ccccc1` (centres undefined) (ξNMe2Val-V[NMeV]PP-X16; configuration not given here), the GI50 in the assay with HL-60(TB) leukemia, with U251 CNS, with OVCAR-3 ovarian, in the assay on COLO 205 colon, in the assay on MCF7 breast and with NCI-H23 lung was < 0.0004 µM in each case. In addition, the figures for the GI50 in the assay with SF-539 CNS and with NCI-H226 lung were < 0.0004 µM and 0.000406 µM, respectively. The TGI in the assay with HL-60(TB) leukemia was 0.00123 µM and < 0.0004 µM; in the assay on U251 CNS, 0.0109 µM; in the assay with OVCAR-3 ovarian it was 0.00383 µM and < 0.0004 µM; in the assay on COLO 205 colon, 0.00838 µM and 0.0415 µM; in the assay on MCF7 breast, > 4 µM; in the assay on NCI-H23 lung it was 0.0145 µM. For the same compound, the TGI in the assay on SF-539 CNS was 0.00516 µM and 0.0481 µM; with NCI-H226 lung it was 1.54 µM.
